From patent publication US20130095059A1, “INHALED NO DONOR KMUPS DERIVATIVE PREVENTING ALLERGIC PULMONARY VASCULAR AND BRONCHIAL INFLAMMATION VIA SUPPRESSED CYTOKINES, INOS AND INFLAMMATORY CELL COUNTS IN ASTHMA MODEL” (priority 2007, published 2013)

What was measured:
pulmonary artery rings = experiment: Isometric force of 5-HT-constricted pulmonary artery rings; parameters: species or system Wistar rats
Method: Wistar rats were euthanized with an overdose of sodium pentobarbital (60 mg/kg, i.p.) before open-chest surgery. During surgery, a thoracic retractor was used to help isolate the pulmonary artery. […] The pulmonary artery ring preparations were stretched to a basal tension of 1 g and allowed to equilibrate for 60-90 min. After equilibration, pulmonary artery rings were constricted with 5-HT (10 μM) to prime the tissues and check the functionality of the endothelium (at least 80% relaxation in response to acetylcholine 1 μM). […] The effect of KMUP-1 on NOS and 5-HT was also studied in vessels pre-incubated with the NOS inhibitor L-NAME (100 μM) 20 min before 5-HT administration. The percentage of relaxation was estimated using the following equation: relaxation (%)=(maximal contraction−relaxation level)/(maximal contraction-basal level)×100. Data was obtained from serotonin-induced maximal contractile responses in pulmonary artery.

NO = experiment: Nitric oxide production in HPAEC (Griess); assay type: cell-based, human; settings: 10 μM, 24 h before adding 5-HT
Method: Production of NO in HPAEC was determined using the Griess method. The three step Greiss test converts nitrate (NO3^−) into nitrite (NO2^−) giving a total NO2^− concentration from a standard calibration curve. HPAEC were incubated with or without KMUP-1 (10 μM) for 24 h and then incubated with 5-HT (10 μmol/L) for 30 min. Media samples from HPAEC were taken and the NO concentration was determined. Six independent experiments were carried out and data are reported as the mean mean±SEM.

BALF cells = experiment: Ovalbumine model, bronchoalveolar lavage cell counts; assay type: in vivo, BALB/c mice; settings: 24 hrs after the last ovalbumine challenge; nebulization
Method: (§1) In this long-term experiment, 6-8 week old BALB/c female mice were sensitized on days 1 and 8 by intra-peritoneal injection (i.p.) of ovalbumine (10 μg) (Sigma-Aldrich, Schnelldorf, Germany) adsorbed to 2 mg aluminum hydroxide (AlumInject; Perbio, Erembodegem, Belgium). Mice were divided into three groups. In Group 1, a control group was only exposed to saline nebulization by aerosol. The other 2 groups were subjected to ovalbumine (1%) nebulization. Before each challenge with ovalbumine, mice were either exposed to saline nebulization (Group 2) or KMUP-1 nebulization (5 mM) for 30 min by aerosol (Group 3).
After the sacrifice of mice, a cannula was placed in the trachea for bronchoalveolar lavage by gentle manual aspiration, using cold PBS-EDTA (0.05 mM, 1 ml) (Calbiochem, Darmstadt, Germany) as previously described (Cataldo D D, et al., 2002). The broncho alveolar lavage fluid (BALF) was centrifuged at 4° C. for 10 min (1200 rpm). The supernatant was frozen at −80° C. for protein assessment and the cell pellet was resuspended in PBS-EDTA (0.05 mM, 1 ml). Total cell counts were performed manually using a thoma chamber. The differential cell counts were performed using morphologic criteria on cytocentrifuged preparations (Cytospin) after staining with Diff-Quick (Dade, Belgium). Differential cell counts were performed by one blinded observer unaware of the experimental treatment.

sGCα1 = experiment: Ovalbumine model, sGCα1 expression; assay type: in vivo, BALB/c mice; settings: 28-day experiment; nebulization
Method: as §1
(§2) The lung tissues were homogenized, washed with PBS and incubated in lysis buffer in addition to a protease inhibitor cocktail (Sigma, St. Louis, Mo.) to obtain extracts of lung proteins. A Western blot analysis was performed as described previously (Wu B N, et al., 2006). The samples were loaded to 10% SDS-PAGE gels and were separated at 120 V for 90 min. The blots were incubated with anti-eNOS antibody diluted at a ratio of 1:500, anti-sGCα1 antibody diluted at a ratio of 1:2000, anti-PKG antibody diluted at a ratio of 1:500, anti-VCAM-1 antibody diluted at a ratio of 1:500, anti-ICAM-1 antibody diluted at a ratio of 1:500, and anti-MMP-9 antibody diluted at a ratio of 1:600 overnight at 4° C. […]

inflammatory cells = experiment: Ovalbumine model, histology of peri-vascular and peri-bronchiolar regions; assay type: in vivo, BALB/c mice; settings: ovalbumine-exposed mice; nebulization 5 mM 30 min
Method: as §1
Sections of fixed embedded tissues were cut at […], placed on glass slides, deparaffinized and stained sequentially with hematoxylin 2 and eosin-Y (MUTO PURE CHEMICALS CO., LTD., Tokyo, Japan) (Tournoy K G, et al., 2000). To confirm the relationship between vascular inflammation/remodeling and expression of proteins, lung tissue sections from ovalbumine experiments were prepared and stained with hematoxylin-eosin as previously described (Hongo M, et al., 2000). Microphotography analysis of blood vessels and bronchioles, focusing on peri-bronchial and peri-vascular region in the lung sections, was performed using a color digital camera mounted on a computer-interfaced light microscope (Eclipse TE2000-S microscope, Nikon, Tokyo, Japan).

PKG = experiment: Ovalbumine model, PKG expression; assay type: in vivo, BALB/c mice; settings: 28-day experiment; nebulization
Method: as §1, §2

MMP-9 = experiment: Ovalbumine model, MMP-9 expression, zymography and immunostaining; assay type: in vivo, BALB/c mice
Method: as §1
The gelatinolytic activity of MMP-9 was measured by gelatin zymography as described previously (Cataldo D D, et al., 2002). Briefly, BALF (10 μl) was subjected to electrophoresis in 10% polyacrylamide gel containing gelatin (1 mg/ml). The gel was washed in 2.5% Triton X-100 to permit re-naturation of gelatinases and stained with Coomassie blue after overnight incubation. Destaining visualized clear zones of lysis against a blue background indicated the gelatinase activity (Hibbs, M S, et al., 1985).
The lung tissues were homogenized, washed with PBS and incubated in lysis buffer in addition to a protease inhibitor cocktail (Sigma, St. Louis, Mo.) to obtain extracts of lung proteins. A Western blot analysis was performed as described previously (Wu B N, et al., 2006). The samples were loaded to 10% SDS-PAGE gels and were separated at 120 V for 90 min. The blots were incubated with anti-eNOS antibody diluted at a ratio of 1:500, anti-sGCα1 antibody diluted at a ratio of 1:2000, anti-PKG antibody diluted at a ratio of 1:500, anti-VCAM-1 antibody diluted at a ratio of 1:500, anti-ICAM-1 antibody diluted at a ratio of 1:500, and anti-MMP-9 antibody diluted at a ratio of 1:600 overnight at 4° C. The membranes were stripped and re-blotted with anti-actin antibody (Sigma, St. Louis, Mo.) to verify the equal loading of protein in each lane.
Immunohistochemical analysis of eNOS enhancement by KMUP-1 was performed as follows. The lungs were perfused with saline followed by 10% formalin and then placed in 10% formalin for paraffin embedding. The lung tissues were cut into […] sections onto slides, dewaxed in 100% xylene, and then re-hydrated in graded alcohol solutions. Throughout the procedures, slides were washed as appropriate in PBS. Antigen retrieval was performed by microwave treatment for eNOS immunostaining. Sections were treated with 3% H2O2 (10 min) to inhibit endogenous peroxidases and incubated with normal serum (60 min) to reduce nonspecific binding of secondary antibodies. Sections were then incubated at 4° C. overnight with eNOS antibodies. After washing off unbounded primary antibodies, sections were incubated with secondary biotinylated antibodies against mouse or rabbit (DAKO Co., Japan) (60 min), followed by incubation in avidin/biotin/horseradish peroxidase complex (DAKO Co., Japan) (30 min) Subsequently, peroxidase activity was visualized by incubation (3 min) with 0.05% 3,3′-diaminobenzidine (DAKO Co., Japan), which gives a brown reaction product. The reaction was stopped by washing with water. The slides were counterstained with hematoxylin. For immunostaining of MMP-9 in lung tissue, the de-paraffinized 3-5 μm sections of lung tissue was performed as above eNOS, but using MMP-9 antibody.

Cn1c(=O)c2c(ncn2CCN2CCN(c3ccccc3Cl)CC2)n(C)c1=O [KMUP-1, 7-[2-[4-(2-chlorophenyl)piperazinyl]ethyl]-1,3-dimethylxanthine]
5-HT (10 μM) contractile response in pulmonary artery (pulmonary artery rings; 0.1-100 μM): inhibited | maximum response of pulmonary artery to 5-HT (pulmonary artery rings; 10-100 μM, in the presence of L-NAME (100 μM)): reduced the maximum response | release of NO compared to 5-HT treatment alone (NO): raised | increase in total cells, lymphocytes and eosinophils in the airway lumen (BALF cells): significantly reduced | decreased sGCα1 expression by ovalbumine sensitization (sGCα1): significantly reduced | inflammatory cells in the peri-vascular and peri-bronchiolar regions (inflammatory cells): marked reductions | decreased PKG expression by ovalbumine sensitization (PKG): significantly reduced | increased MMP-9 expression by ovalbumine sensitization (MMP-9; 28-day experiment, nebulization): significantly reduced | zymography of MMP-9 (MMP-9; BALF, versus ovalbumine): decreased | MMP-9 positive cells (immunostaining) (MMP-9; ovalbumine-sensitized and -challenged mice): hardly detected
